Reference: patent US8648097B2, “Pyridylaminoacetic acid compound” (Ube Industries, Ltd., priority 2008, dated 2014)
Structures can show the parent of a compound that is named as a salt. Where two headings read alike, the source gives them in different places.

How the values were obtained:
[1] = system: isolated guinea pig trachea; experiment: Isolated guinea pig trachea relaxation test; settings: 50% relaxation of 0.1 μM carbachol-induced contraction
Protocol: The tracheas were isolated from guinea pigs (Hartley, male, age 7 to 9 weeks, supplier: Nippon SLC) followed by cutting as rings containing cartilage. Trachea specimens were prepared by cutting the side opposite from the smooth muscle from the rings. The trachea specimens were suspended in Krebs solution containing 3 μM indomethacin while applying a load of 0.5 g, and changes in tension were measured through an FD pickup (TB-611T, Nippon Kohden). The trachea specimens were then warmed to 37° C. and perfused with a mixed gas consisting of 95% oxygen and 5% carbon dioxide. Next, after causing the trachea specimen to contract by adding 0.1 μM carbachol, a test compound dissolved in dimethylsulfoxide was cumulatively added starting at a low concentration to cause the trachea specimen to relax.

[2] = biological target: T1, EP2 (Homo sapiens, UniProt P43116); experiment: Measurement of EP2 receptor binding action; parameters: expressed in transfected cells; host or cells: HEK293 cells (membrane fraction)
T1 sequence (P43116 whole entry): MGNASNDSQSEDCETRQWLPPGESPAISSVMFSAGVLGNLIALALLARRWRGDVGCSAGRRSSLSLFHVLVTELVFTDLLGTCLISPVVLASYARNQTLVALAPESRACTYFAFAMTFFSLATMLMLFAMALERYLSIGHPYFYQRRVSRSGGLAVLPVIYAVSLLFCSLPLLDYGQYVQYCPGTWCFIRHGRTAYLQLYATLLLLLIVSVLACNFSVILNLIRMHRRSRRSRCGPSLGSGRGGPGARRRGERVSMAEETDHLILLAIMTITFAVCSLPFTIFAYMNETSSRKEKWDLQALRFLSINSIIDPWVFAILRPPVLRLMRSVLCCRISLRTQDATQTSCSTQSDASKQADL
Protocol: Measurement of EP2 receptor binding action was carried out in compliance with the method of Abramovitz et al. (Biochimica et Biophysica Acta, 1483, 285 (2000)). […] The membrane fraction was recovered on glass fiber filter paper (GF/B, Whatmann) using a cell harvester (M30R, Brandel), and after washing with buffer solution (10 mM MES-KOH (pH 6.0), 10 mM MgCl2), radioactivity was measured with a liquid scintillation analyzer (2000CA, Packard). […] The dissociation constant (Kd) was calculated by Scatchard analysis. Furthermore, a Compound A shown in the table is a sodium salt of {3-[(4-tert-butylbenzyl)(pyridin-3-ylsulfonyl)aminomethyl]-phenoxy}acetic acid (CP-533,536), which is the compound of Example 14e of WO 99/19300A, and is a control compound having EP2 receptor binding action.

[3] = biological target: T1, EP2; experiment: Measurement of EP2 agonist activity (cAMP in HEK293 cells); assay type: cell-based; parameters: host or cells: HEK293 cells; settings: amount of cAMP in HEK293 cells (ES-562-C, Euroscreen), 30 minutes
Protocol: Measurement of EP2 agonist activity was carried out in compliance with the method of Wilson et al. (European Journal of Pharmacology, 501, 49 (2004)). HEK293 cells (ES-562-C, Euroscreen) were cultured in MEM medium containing 10% FBS and seeded at 2×10^4 cells per well of a 96-well plate. On the following day, the medium was replaced with serum-free MEM medium containing 3-isobutyl-1-methylxanthine (final concentration: 500 μM) and after culturing for 30 minutes, a test compound dissolved in dimethylsulfoxide was added followed by allowing to stand undisturbed in a carbon dioxide incubator. After 30 minutes, the amount of cAMP in the cells was measured with a cAMP Biotrak EIA System kit (GE Healthcare Sciences).

[4] = read-out: Ki Value of EP2 Receptor Binding Action

Structure (SMILES)	Ki [2, 4] [nM]	EC50 [3] [nM]	also measured
CC(C)(C)c1ccc(CN(Cc2cccc(OCC(=O)O)c2)S(=O)(=O)c2cccnc2)cc1 [Compound A, {3-[(4-tert-butylbenzyl)(pyridin-3-ylsulfonyl)aminomethyl]-phenoxy}acetic acid, reference compound]			IC50 ([1]; Cavia porcellus): 86 nM
O=C(O)CNc1cccc(CN(Cc2ccc(-c3nccs3)cc2)S(=O)(=O)c2cccnc2)n1 [Example 2, (6-{(Pyridin-3-ylsulfonyl)[4-(thiazol-2-yl)benzyl]aminomethyl}pyridin-2-ylamino)-acetic acid]			IC50 ([1]; Cavia porcellus): 5.7 nM
O=C(O)CNc1cccc(CN(Cc2ccc(-c3nccs3)cc2)S(=O)(=O)c2ccccn2)n1 [Example 3, (6-{(Pyridin-2-ylsulfonyl)[4-(thiazol-2-yl)benzyl]aminomethyl}pyridin-2-ylamino)-acetic acid]	1.9	0.45	
O=C(O)CNc1cccc(CN(Cc2ccc(-c3nccs3)cc2)S(=O)(=O)c2ccc(F)cc2)n1 [Example 4, (6-{(4-Fluorobenzenesulfonyl)[4-(thiazol-2-yl)benzyl]aminomethyl}pyridin-2-ylamino)acetic acid]		0.29	Ki ([2]; [3H]prostaglandin E2 10 nM, membrane fraction of HEK293 cells expressing human EP2 receptor, read-out: Ki Value of EP2 Receptor Binding Action): 2.8 nM; IC50 [1]: 4.5 nM
O=C(O)CNc1cccc(CN(Cc2ccc(C3=NCCS3)cc2)S(=O)(=O)c2ccc(F)cc2)n1 [Example 5, (6-{[4-(4,5-Dihydrothiazol-2-yl)benzyl](4-fluorobenzenesulfonyl)aminomethyl}-pyridin-2-ylamino)acetic acid]	7	1.8	
O=C(O)CNc1cccc(CN(Cc2ccc(-c3ccccc3)cc2)S(=O)(=O)c2cccnc2)n1 [Example 6, {6-[(Biphenyl-4-ylmethyl)(pyridin-3-ylsulfonyl)aminomethyl]pyridin-2-ylamino}acetic acid hydrochloride]		2	Ki [2]: 3.8 nM
O=C(O)CNc1cccc(CN(Cc2ccc(-n3cccn3)cc2)S(=O)(=O)c2cccnc2)n1 [Example 7, (6-{[4-(Pyrazol-1-yl)benzyl](pyridin-3-ylsulfonyl)aminomethyl}pyridin-2-ylamino)-acetic acid hydrochloride]		2.8	
O=C(O)CNc1cccc(CN(Cc2cc3ccccc3o2)S(=O)(=O)c2cccnc2)n1 [Example 8, {6-[(Benzofuran-2-ylmethyl)(pyridin-3-ylsulfonyl)aminomethyl]pyridin-2-ylamino}-acetic acid hydrochloride]		5.6	
O=C(O)CNc1cccc(CN(Cc2ccc(-c3ccc(F)cc3)cc2)S(=O)(=O)c2cccnc2)n1 [Example 9, {6-[(4′-Fluorobiphenyl-4-ylmethyl)(pyridin-3-ylsulfonyl)aminomethyl]pyridin-2-ylamino}acetic acid hydrochloride]	4.4		
O=C(O)CNc1cccc(CN(Cc2ccc(-c3nccs3)cc2)S(=O)(=O)c2cccnc2)n1 [Example 11, (6-{(Pyridin-3-ylsulfonyl) [4-(thiazol-2-yl)benzyl]aminomethyl}pyridin-2-ylamino)-acetic acid trifluoroacetate]	3.8	0.42	
O=C(O)CNc1cccc(CN(Cc2cc3ccc(Cl)cc3s2)S(=O)(=O)c2cccnc2)n1 [Example 12, {6-[(6-Chlorobenzo[b]thiophen-2-ylmethyl)(pyridin-3-ylsulfonyl)aminomethyl]pyridin-2-ylamino}acetic acid hydrochloride]	1.1	0.49	
O=C(O)CNc1cccc(CN(Cc2cc3ccccc3s2)S(=O)(=O)c2cccnc2)n1 [Example 13, {6-[(Benzo[b]thiophen-2-ylmethyl)(pyridin-3-ylsulfonyl)aminomethyl]pyridin-2-ylamino}acetic acid hydrochloride]	13	3.4	
COc1ccc2cc(CN(Cc3cccc(NCC(=O)O)n3)S(=O)(=O)c3cccnc3)sc2c1 [Example 15, {6-[(6-Methoxybenzo[b]thiophen-2-ylmethyl)(pyridin-3-ylsulfonyl)aminomethyl]-pyridin-2-ylamino}acetic acid hydrochloride]	9.4	0.96	IC50 ([1]; Cavia porcellus): 2.6 nM
O=C(O)CNc1cccc(CN(Cc2ccc(-c3cscn3)cc2)S(=O)(=O)c2ccccn2)n1 [Example 16, (6-{(Pyridin-2-ylsulfonyl)[4-(thiazol-4-yl)benzyl]aminomethyl}pyridin-2-ylamino)-acetic acid]	3.1	0.62	IC50 ([1]; Cavia porcellus): 2.6 nM
O=C(O)CNc1cccc(CN(Cc2ccc(-c3ccccc3)cc2)S(=O)(=O)c2ccccn2)n1 [Example 17, {6-[(Biphenyl-4-ylmethyl)(pyridin-2-ylsulfonyl)aminomethyl]pyridin-2-ylamino}acetic acid hydrochloride]	1.5	1.8	IC50 ([1]; Cavia porcellus): 2.6 nM
O=C(O)CNc1cccc(CN(Cc2ccc(-c3ncccn3)cc2)S(=O)(=O)c2ccccn2)n1 [Example 18, (6-{(Pyridin-2-ylsulfonyl)[4-(pyrimidin-2-yl)benzyl]aminomethyl}pyridin-2-ylamino)-acetic acid hydrochloride]	9.2	5	
O=C(O)CNc1cccc(CN(Cc2ccc(-c3ccccn3)cc2)S(=O)(=O)c2cccnc2)n1 [Example 19, (6-{[4-(Pyridin-2-yl)benzyl](pyridin-3-ylsulfonyl)aminomethyl}pyridin-2-ylamino)-acetic acid]		2	
O=C(O)CNc1cccc(CN(Cc2ccc(-n3cccn3)cc2)S(=O)(=O)c2ccccn2)n1 [Example 21, (6-{[4-(Pyrazol-1-yl)benzyl](pyridin-2-ylsulfonyl)aminomethyl}pyridin-2-ylamino)-acetic acid]		1.1	
O=C(O)CNc1cccc(CN(Cc2ccc(-c3nc(C(F)(F)F)cs3)cc2)S(=O)(=O)c2ccccn2)n1 [Example 25, (6-{(Pyridin-2-ylsulfonyl)[4-(4-trifluoromethylthiazol-2-yl)benzyl]aminomethyl}-pyridin-2-ylamino)acetic acid]		7.9	
O=C(O)CNc1cccc(CN(Cc2ccc(-n3cccn3)cc2)S(=O)(=O)c2ccc(F)cc2)n1 [Example 26, (6-{(4-Fluorobenzenesulfonyl)[4-(pyrazol-1-yl)benzyl]aminomethyl}pyridin-2-ylamino)acetic acid]		0.78	
